Experimental data as given in patent US20060293282A1, “Substituted aminoalkanephosphonic acids” (priority 2002, published 2006).

Tests used:
neurons = details: superfusion, in vitro
Source text: The activity in tinnitus of the compounds is indicated in standard tests, e.g. in the salicylate-induced tinnitus model.

auditory neurons = test: extracellular electrophysiological recording of auditory neuron firing rate
Wistar Kyoto rats [1] = test: Test 1: NMDA-antagonist induced locomotion; format: in vivo; details: rat
Experimental: Test 1: NMDA-Antagonist Induced Locomotion:
Male Wistar Kyoto rats (Iffa Crédo, Lyon, France) weighing between 250 and 310 g are used. In principle 4 treatment groups are formed: 1) the compound (doses 1, 3 or 10 mg/kg) followed by the competitive NMDA receptor antagonist (S)-2-amino-3-(2′-chloro-5-phosphonomethyl-biphenyl-3-yl)-propionic acid, hereinafter SDZ 220-581 (10 mg/kg), 2) solvent-pretreatment followed by SDZ 220-581 (10 mg/kg), 3) solvent followed by solvent, 4) the compound (1, 3, 10 mg/kg) followed by solvent. Rats are randomly allocated to these pretreatment groups (n=10/dose group). Drugs are administered subcutaneous (s.c.), 15 min prior to SDZ 220-581. Immediately after the animals received SDZ 220-581, they are placed into the activity monitor for a period of 60 min. Locomotor activity is analysed over the initial 30 minutes.
Locomotion is recorded with a videotracking system (VideoMot2, TSE Technical and Scientific Equipment GmbH, Bad Hombourg, Germany), using a closed circuit digital videocamera (WV-BP.330/GE, Panasonic, Osaka, Japan). The video-signal from the camera is digitized and used for data analysis. Animals are on a normal 12/12 h day-night cycle, with light on at 06:00H. Experiments are performed in a dimly lit room between 07:00 H and 15:00H. […] The camera is placed such, that four animals (one per arena) can be recorded simultaneously.

Wistar rats = test: model of neuropathic pain in the rat (partial sciatic nerve ligation, mechanical hyperalgesia); format: in vivo; details: 10 mg/kg p.o., after 3 hours
Source text: The activity of the compounds in the treatment of neuropathic pain is evidenced, for example, in the following model of neuropathic pain in the rat:
Wistar rats are anaesthetised with enflurane and a small incision is made mid-way up one thigh to expose the sciatic nerve. The nerve is cleared of connective tissue and a 7-0 silk suture is inserted into the nerve using a ⅜ curved reverse-cutting min-needle, and tightly ligated so that the dorsal ⅓ to ½ of the nerve thickness is held within the ligature. The muscle and skin are closed with sutures and clips and the wound dusted with antibiotic powder. […] Mechanical hyperalgesia is assessed by measuring paw withdrawal thresholds on both the ipsilateral (ligated) and contralateral (unligated) hindpaw to an increasing pressure stimulus applied to the paw using an analgesymeter (Ugo-Basile) with a wedge-shaped probe (area 1.75 mm^2) and a cut-off threshold of 250 g. […] Reversal of established hyperalgesia by administered compounds is measured 12-14 days following surgery, using 6 animals per treatment group. Paw withdrawal thresholds are measured prior to and then up to 6 hours following drug or vehicle administration. Statistical analysis is carried out on withdrawal threshold readings using ANOVA followed by Tukey's HSD test comparing drug treated and time-matched vehicle treated animals.

[2] = tested on: patients with diabetic neuropathy; test: clinical study of chronic pain in patients with diabetic neuropathy; format: in vivo, human; details: 2400 mg/day, Maintenance and Follow-up Periods, statistically significant
Experimental: The activity of the compounds of formula I in the treatment of neuropathic pain can be confirmed in clinical trials, for example in the following study aimed at evaluating the efficacy of a compound in treating chronic pain in patients with diabetic neuropathy:
Patients are randomized to receive 2400 mg/day of the compound or placebo in a 1:1 ratio.
The study consists of a Pre-randomization Phase (1 week) and a Double-blind Phase (5 weeks). The double-blind Phase consists of three periods: a one week Titration Period, a three-week Maintenance Period and a one-week Follow-up Period.
During the 1-week Pre-randomization Phase, the eligibility of the patients is evaluated. Patents meeting all inclusion/exclusion criteria are randomized to either the compound or placebo in the Double-blind Phase. […]
The SF-MPQ total pain score at the end of the Maintenance Period is analyzed using an analysis of covariance model adjusting for the effect of treatment on post-treatment scores by using the baseline SF-MPQ total pain score as a covariate. Average weekly pain severity is analyzed using an analysis of covariance model with repeated measures using the treatment week and the mean pain severity rating during the Pre-randomization Phase as covariates. Usage of rescue medication during the Double-blind Phase is analyzed using the Cochran-Mantel-Haenszel test controlling for center. […]

Wistar Kyoto rats [3] = test: Test 2: NMDA-channel blocker induced head swaying and circling; format: in vivo; details: rat, 10 mg/kg s.c., 0-30 min
Experimental: Test 2: NMDA-Channel Blocker Induced Head Swaying and Circling:
Adult male Wistar Kyoto rats (340-380 g; Iffa Credo, Lyon, France) are used. The animals are randomized to the following treatment groups (n=10 per group): the compound (dosed 0, 3 or 10 mg/kg) followed by phencyclidine (PCP; an NMDA channel blocker, dosed 0 or 10 mg/kg). Compound (at t=−15 min) and PCP (at t=0 min) are administered s.c. in a volume of 1 ml/kg. Video-recordings of the animals behaviour over the period 0-30 min following PCP are scored by an observer who is unaware about the animals pretreatment. Head-swaying (rocking the head repeatedly by at least 2 cm left and right) and circling (turning around by using the forepaws, whereas the hindpaws remain more or less on the original position) are scored as present (1) or absent (0), every five minutes for the duruation of 1 minute. The scores for individual animals is summed and group scores used for statistical analysis (t-test with Bonferroni correction).

## O=C(O)c1ccccc1O [salicylate]
neurons
  excitability of the recorded neurons: increases the excitability
Auditory neurons
  firing rate of auditory neurons: increase in the firing rate

## N[C@@H](Cc1cc(CP(=O)(O)O)cc(-c2ccccc2Cl)c1)C(=O)O [SDZ 220-581, (S)-2-amino-3-(2′-chloro-5-phosphonomethyl-biphenyl-3-yl)-propionic acid]
Wistar Kyoto rats [1]; 10 mg/kg s.c., control animals approximately 8-10 m
  distance walked during 30 min: approximately 30 m

## O=c1[nH]c2cc([N+](=O)[O-])cc(CNCP(=O)(O)O)c2[nH]c1=O [{[(7-nitro-2,3-dioxo-1,2,3,4-tetrahydro-quinoxalin-5-ylmethyl)-amino]-methyl}-phosphonic acid]
Wistar rats
  maximal reversal of neuropathic mechanical hyperalgesia: 35%
[2]
  pain severity ratings relative to placebo: decrease pain severity ratings relative to placebo
Wistar Kyoto rats [1]; compound 10 mg/kg s.c., SDZ 220-581 10 mg/kg s.c.
  effect of the NMDA-antagonist SDZ 220-581 on locomotion after pretreatment: almost normalized

## c1ccc(C2(N3CCCCC3)CCCCC2)cc1 [PCP, phencyclidine]
Wistar Kyoto rats [3]
  head-swaying and circling induced: weak head-swaying and circling

## C=C[C@H]1C[N@@]2CC[C@H]1C[C@H]2[C@H](O)c1ccnc2ccc(OC)cc12 [quinine]
Auditory neurons
  firing rate of auditory neurons: increase in the firing rate
